38 compounds from patent publication US7402691B2, “Malononitrile compounds and their use as pesticides” (Sumitomo Chemical Company, Limited, priority 2001, dated 2008) can be followed below.

SMILES strings stand for the structures. Read-outs that look alike come from different tables or passages of the source.

Format in all cases: in vivo
Assay [1] concerns Leptinotarsa decemlineata. Nature of the assay: Pesticidal test against Leptinotarsa decemlineata, eggplant leaf dip (Test Example 5). The conditions noted are these: foliar, 120 h, eggplant leaf immersed 1 minute, second-instar larvae, 5th day after release, read-out: rate of dead or moribund pests. Here is the method:
A leaf of eggplant was immersed in the test liquid, which had been prepared as described above, for 1 minute. After the test liquid treated the leaf of eggplant was dried with a paper towel, the leaf of eggplant was placed in a polyethylene cup of 3 cm in diameter. One second-instar larvae of Leptinotarsa decemlineata (Colorado potato beetle) were set free in the polyethylene cup, which was then kept covered and left in a greenhouse at 25° C. This test was done ten times for one compound. On the 5th day after the release of Leptinotarsa decemlineata, the number of dead pests and moribund pests was examined.

Another assay concerns Musca domestica. Description: Pesticidal test against Musca domestica, filter paper with sucrose bait (Test Example 6). Here is the method: Ten female adults of Musca domestics (house fly) were set free in the polyethylene cup, which was then kept covered. After 24 hours, their survival was examined to determine the mortality.
A further assay deals with Eysarcoris lewisi. Nature of the assay: Pesticidal test against Eysarcoris lewisi, treated peanut seeds (Test Example 4). As to conditions: 168 h, peanut seeds immersed 1 minute, adults, 7th day after release, read-out: rate of dead or moribund pests. The protocol: Then, 3 to 5 seeds of peanut were immersed in the test liquid, which had been prepared as described above, for 1 minute. After the test liquid treated the seeds of peanut was dried with a paper towel, a filter paper moistened with 1 ml of water was placed on a bottom of polyethylene cup and then the seeds of peanut was placed on it. Six to eight adults of Eysarcoris lewisi were set free in the polyethylene cup, which was then kept covered and left in a greenhouse at 25° C. On the 7th day after the release of Eysarcoris lewisi, the number of dead pests and moribund pests was examined.

Where [2] appears, read: 500 ppm, 0.7 ml on filter paper, ten female adults, after 24 hours, read-out: mortality.

As to `N#CC(C#N)(CCC(F)(F)C(F)(F)F)Cc1ccc(OC(F)(F)F)cc1` [Compound 10, 2-(3,3,4,4,4-pentafluorobutyl)-2-(4-(trifluoromethoxy)benzyl)malononitrile], the pest or weed control at 1.6 ppm in assay [1] was > 80%. Further, the mortality at 500 ppm in the assay on Musca domestica (setting [2]) amounted to 100%. For the same compound, the pest or weed control at 100 ppm in the assay with Eysarcoris lewisi was found to be 100%.

For the compound `N#CC(C#N)(CCCF)Cc1ccc(C(F)(F)F)cc1` [Compound 14, 2-(3-fluoropropyl)-2-(4-(trifluoromethyl)benzyl)malononitrile], in the assay on Musca domestica (setting [2]), the mortality at 500 ppm worked out at 100%. In the assay on Eysarcoris lewisi, the pest or weed control at 100 ppm amounted to 100%.

On to `CCc1ccc(CC(C#N)(C#N)CCC(F)(F)F)cc1` [Compound 31, 2-(4-ethylbenzyl)-2-(3,3,3-trifluoropropyl)malononitrile], for which, in the assay with Musca domestica (setting [2]), the mortality at 500 ppm is 100%.

Regarding `N#CC(C#N)(CCC(F)=C(F)F)Cc1ccccc1` [Compound 4, 2-benzyl-2-(3,4,4-trifluoro-3-butenyl)malononitrile], the mortality at 500 ppm in the assay with Musca domestica (setting [2]) turned out to be 100%.

Turning to `N#CC(C#N)(Cc1ccc(C(F)(F)F)cc1)CC(F)(F)C(F)(F)F` [Compound 76, 2-(2,2,3,3,3-pentafluoropropyl)-2-(4-(trifluoromethyl)benzyl)malononitrile], the pest or weed control at 1.6 ppm in assay [1] is > 80%. Besides, the mortality at 500 ppm in the assay on Musca domestica (setting [2]) came out at 100%. Also, in the assay on Eysarcoris lewisi, the pest or weed control at 100 ppm amounted to 100%.

Turning to `C=Cc1ccc(CC(C#N)(C#N)CCC(F)(F)F)cc1` [Compound 27, 2-(3,3,3-trifluoropropyl)-2-(4-vinylbenzyl)malononitrile], the mortality at 500 ppm with Musca domestica (setting [2]) stood at 100%.

For the compound `CC(C)(C)c1ccc(CC(C#N)(C#N)CCC(F)(F)F)cc1` [Compound 33, 2-(4-t-butylbenzyl)-2-(3,3,3-trifluoropropyl)malononitrile], the mortality at 500 ppm with Musca domestica (setting [2]) was 100%.

As to `CC(c1ccc(Cl)cc1)C(C#N)(C#N)CCF` (stereo not drawn) [Compound 53, 2-(1-(4-chlorophenyl)ethyl)-2-(2-fluoroethyl)malononitrile], the mortality at 500 ppm in the assay on Musca domestica (setting [2]) was found to be 100%.

On to `N#CC(C#N)(Cc1ccc(C(F)(F)F)cc1)CC(F)(F)C(F)(F)C(F)(F)F` [Compound 77, 2-(2,2,3,3,4,4,4-heptafluorobutyl)-2-(4-(trifluoromethyl)benzyl)malononitrile], for which, in the assay on Musca domestica (24 h), the mortality at 500 ppm was found to be 100%.

Turning to `N#CC(C#N)(CCC(F)(F)F)Cc1ccc(C(F)(F)F)cc1` [Compound 74, 2-(3,3,3-trifluoropropyl)-2-(4-(trifluoromethyl)benzyl)malononitrile], the pest or weed control at 1.6 ppm in assay [1] is > 80%. Besides, in the assay on Musca domestica (setting [2]), the mortality at 500 ppm was 100%. In addition, the pest or weed control at 100 ppm in the assay with Eysarcoris lewisi worked out at 100%.

As for `N#CC(C#N)(CCC(F)(F)F)Cc1ccc([N+](=O)[O-])cc1` [Compound 18, 2-(4-nitrobenzyl)-2-(3,3,3-trifluoropropyl)malononitrile], the mortality at 500 ppm with Musca domestica (setting [2]) is 100%.

On to `N#CC(C#N)(CCC(F)(F)F)Cc1ccc(F)cc1` [Compound 16, 2-(4-fluorobenzyl)-2-(3,3,3-trifluoropropyl)malononitrile], for which the mortality at 500 ppm with Musca domestica (setting [2]) stood at 100%.

On to `N#CC(C#N)(CCC(F)(F)F)Cc1c(Cl)cc(C(F)(F)F)cc1Cl` [Compound 7, 2-(2,6-dichloro-4-(trifluoromethyl)benzyl)-2-(3,3,3-trifluoropropyl)malononitrile], for which the mortality at 500 ppm in the assay on Musca domestica (setting [2]) is 100%.

For `N#CC(C#N)(CCC(F)(F)F)Cc1ccc(F)cc1Cl` [Compound 44, 2-(2-chloro-4-fluorobenzyl)-2-(3,3,3-trifluoropropyl)malononitrile], the mortality at 500 ppm with Musca domestica (setting [2]) came to 100%.

Turning to `CC(C)c1ccc(CC(C#N)(C#N)CCC(F)(F)F)cc1` [Compound 35, 2-(4-isopropylbenzyl)-2-(3,3,3-trifluoropropyl)malononitrile], the mortality at 500 ppm in the assay with Musca domestica (setting [2]) was 100%.

On to `N#CC(C#N)(CCC(F)(F)F)Cc1ccc(C(F)(F)F)c(Cl)c1` [Compound 39, 2-(3-chloro-4-(trifluoromethyl)benzyl)-2-(3,3,3-trifluoropropyl)malononitrile], for which the mortality at 500 ppm in the assay on Musca domestica (setting [2]) was 100%. Further, the pest or weed control at 100 ppm with Eysarcoris lewisi was determined as 100%.

Take `N#CC(C#N)(CCC(F)(F)F)Cc1ccc(Br)cc1` [Compound 9, 2-(4-bromobenzyl)-2-(3,3,3-trifluoropropyl)malononitrile]: the mortality at 500 ppm in the assay with Musca domestica (setting [2]) amounted to 100%. Besides, in the assay with Eysarcoris lewisi, the pest or weed control at 100 ppm was found to be 100%.

Regarding `N#CC(C#N)(CCC(F)(F)F)Cc1cccc(OCc2ccccc2)c1` [Compound 88, 2-(3-(benzyloxy)benzyl)-2-(3,3,3-trifluoropropyl)malononitrile], in the assay with Musca domestica (setting [2]), the mortality at 500 ppm was 100%.

Take `N#CC(C#N)(CCC(F)(F)F)Cc1ccc(OC(F)(F)F)cc1` [Compound 50, 2-(3,3,3-trifluoropropyl)-2-(4-(trifluoromethoxy)benzyl)malononitrile]: in assay [1], the pest or weed control at 1.6 ppm is > 80%. Further, the mortality at 500 ppm in the assay on Musca domestica (setting [2]) came out at 100%. Moreover, the pest or weed control at 100 ppm in the assay with Eysarcoris lewisi was 100%.

As to `N#CC(C#N)(CCC(F)(F)F)Cc1ccccc1` [Compound 12, 2-benzyl-2-(3,3,3-trifluoropropyl)malononitrile], in the assay with Musca domestica (setting [2]), the mortality at 500 ppm stood at 100%.

Regarding `N#CC(C#N)(CCF)Cc1ccc(F)cc1` [Compound 59, 2-(4-fluorobenzyl)-2-(2-fluoroethyl)malononitrile], the mortality at 500 ppm in the assay on Musca domestica (setting [2]) was 100%.

Take `N#CC(C#N)(Cc1ccc(OC(F)(F)F)cc1)CC(F)(F)C(F)(F)F` [Compound 5, 2-(2,2,3,3,3-pentafluoropropyl)-2-(4-(trifluoromethoxy)benzyl)malononitrile]: the pest or weed control at 1.6 ppm in assay [1] is > 80%. Also, the mortality at 500 ppm with Musca domestica (setting [2]) was determined as 100%.

Turning to `N#CC(C#N)(CCCC(F)(F)F)Cc1ccc(C(F)(F)F)cc1` [Compound 78, 2-(4,4,4-trifluorobutyl)-2-(4-(trifluoromethyl)benzyl)malononitrile], in assay [1], the pest or weed control at 1.6 ppm is > 80%. For the same compound, the mortality at 500 ppm in the assay with Musca domestica (setting [2]) turned out to be 100%.

Turning to `N#CC(C#N)(CCC(F)(F)F)Cc1ccc(I)cc1` [Compound 26, 2-(4-iodobenzyl)-2-(3,3,3-trifluoropropyl)malononitrile], the mortality at 500 ppm in the assay on Musca domestica (setting [2]) amounted to 100%.

Turning to `N#Cc1ccc(CC(C#N)(C#N)CCC(F)(F)F)cc1` [Compound 22, 2-(4-cyanobenzyl)-2-(3,3,3-trifluoropropyl)malononitrile], the mortality at 500 ppm in the assay with Musca domestica (setting [2]) was determined as 100%. Besides, the pest or weed control at 100 ppm in the assay with Eysarcoris lewisi is 100%.

In the case of `N#CC(C#N)(CCC(F)=C(F)F)Cc1ccc(C(F)(F)F)cc1` [Compound 73, 2-(3,4,4-trifluoro-3-butenyl)-2-(4-(trifluoromethyl)benzyl)malononitrile], in the assay with Musca domestica (setting [2]), the mortality at 500 ppm was found to be 100%.

For `N#CC(C#N)(CCC(F)(F)F)Cc1ccc(SC(F)(F)F)cc1` [Compound 13, 2-(4-(trifluoromethylthio)benzyl)-2-(3,3,3-trifluoropropyl)malononitrile], the mortality at 500 ppm with Musca domestica (setting [2]) was determined as 100%.

For `Cc1cc(CC(C#N)(C#N)CCC(F)(F)F)ccc1[N+](=O)[O-]` [Compound 45, 2-(3-methyl-4-nitrobenzyl)-2-(3,3,3-trifluoropropyl)malononitrile], the mortality at 500 ppm in the assay with Musca domestica (setting [2]) turned out to be 100%.

In the case of `N#CC(C#N)(CCC(F)=C(F)F)Cc1ccc(OC(F)(F)F)cc1` [Compound 49, 2-(3,4,4-trifluoro-3-butenyl)-2-(4-(trifluoromethoxy)benzyl)malononitrile], in the assay with Musca domestica (setting [2]), the mortality at 500 ppm turned out to be 100%.

`N#CC(C#N)(CCC(F)F)Cc1ccc(C(F)(F)F)cc1` [Compound 11, 2-(3,3-difluoropropyl)-2-(4-(trifluoromethyl)benzyl)malononitrile]: in the assay with Musca domestica (setting [2]), the mortality at 500 ppm was found to be 100%. Also, in the assay on Eysarcoris lewisi, the pest or weed control at 100 ppm stood at 100%.

For the compound `N#CC(C#N)(CCC(F)=C(F)F)Cc1ccc(SC(F)(F)F)cc1` [Compound 54, 2-(3,4,4-trifluoro-3-butenyl)-2-(4-(trifluoromethylthio)benzyl)malononitrile], the mortality at 500 ppm with Musca domestica (setting [2]) came out at 100%.

In the case of `CC(c1ccc(Cl)cc1)C(C#N)(C#N)CCC(F)(F)F` (stereo not drawn) [Compound 42, 2-(1-(4-chlorophenyl)ethyl)-2-(3,3,3-trifluoropropyl)malononitrile], the mortality at 500 ppm in the assay with Musca domestica (setting [2]) stood at 100%.

`COc1ccc(CC(C#N)(C#N)CCC(F)(F)F)cc1` [Compound 89, 2-(4-methoxybenzyl)-2-(3,3,3-trifluoropropyl)malononitrile]: in the assay on Musca domestica (setting [2]), the mortality at 500 ppm was determined as 100%.

On to `N#CC(C#N)(CCC(F)(F)F)Cc1cccc(F)c1` [Compound 79, 2-(3-fluorobenzyl)-2-(3,3,3-trifluoropropyl)malononitrile], for which the mortality at 500 ppm in the assay on Musca domestica (setting [2]) came out at 100%.

`N#CC(C#N)(Cc1ccc(C(F)(F)F)cc1)CC(F)(F)F` [Compound 72, 2-(2,2,2-trifluoroethyl)-2-(4-(trifluoromethyl)benzyl)malononitrile]: the mortality at 500 ppm in the assay with Musca domestica (setting [2]) worked out at 100%.

For `N#CC(C#N)(CCC(F)(F)C(F)(F)F)Cc1ccc(Cl)cc1` [Compound 23, 2-(4-chlorobenzyl)-2-(3,3,4,4,4-pentafluorobutyl)malononitrile], the mortality at 500 ppm in the assay on Musca domestica (setting [2]) stood at 100%. In addition, the pest or weed control at 100 ppm in the assay on Eysarcoris lewisi was determined as 100%.

In the case of `N#Cc1ccc(CC(C#N)(C#N)CCF)cc1` [Compound 46, 2-(4-cyanobenzyl)-2-(2-fluoroethyl)malononitrile], the mortality at 500 ppm with Musca domestica (setting [2]) came out at 100%.

In the case of `N#CC(C#N)(CCC(F)(F)F)Cc1cc(F)cc(F)c1` [Compound 71, 2-(3,5-difluorobenzyl)-2-(3,3,3-trifluoropropyl)malononitrile], the mortality at 500 ppm in the assay with Musca domestica (setting [2]) came to 100%.

Broadly, the mortality is the percentage killed.
